In patent US10722520B2, “Heterocyclic compounds and their use in preventing or treating bacterial infections” (MUTABILIS, priority 2016, dated 2020):

How the values were obtained:
AmpC (PAE) = AmpC (PAE) (Pseudomonas aeruginosa, UniProt P24735); conditions: read-out: IC50 β-lactamase AmpC (PAE); class (C); nitrocefin 200 μM, 30-min pre-incubation, enzyme 0.4 nM
E. cloacae P99 [1] = assay: MIC of ceftazidime (CAZ) at fixed concentration of compound (synergy), broth microdilution; assay type: cell-based; conditions: strain P99; MIC of CAZ, compound fixed at 4 μg/mL
Experimental: (§1) Log phase bacterial suspensions were adjusted to a final density of 5×10^5 cfu/mL in cation-adjusted Mueller-Hinton broth (Becton-Dickinson) and added to each well (98 μL). Microplates were incubated for 16-20 h at 35° C. in ambient air. The MIC of the compounds was defined as the lowest concentration of said compounds that prevented bacterial growth as read by visual inspection.

K. pneumoniae BAA-1898 [2] = assay: as above; assay type: cell-based; conditions: strain BAA-1898; MIC of CAZ, compound fixed at 4 μg/mL
Experimental: as §1

P. aeruginosa CIP107051 [3] = assay: as above; assay type: cell-based; conditions: strain CIP107051; MIC of CAZ, compound fixed at 4 μg/mL
Experimental: as §1

E. coli 190317 [4] = assay: as above; assay type: cell-based; conditions: strain 190317; MIC of CAZ, compound fixed at 4 μg/mL
Experimental: as §1

K. pneumoniae 6299 [5] = assay: as above; assay type: cell-based; conditions: strain 6299; MIC of CAZ, compound fixed at 4 μg/mL
Experimental: as §1

E. cloacae P99 [6] = assay: MIC of compound alone, broth microdilution; assay type: cell-based; conditions: strain P99; compound alone
Procedure, shortened: (§2)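 Visual end point: lowest concentration that blocked growth. Conditions: cation-adjusted Mueller-Hinton broth, 5×10^5 cfu/mL final inoculum of log-phase bacteria, 16-20 h, 35° C, ambient atmosphere.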

K. pneumoniae BAA-1898 [7] = assay: MIC of compound alone, broth microdilution; assay type: cell-based; conditions: strain BAA-1898; compound alone
Procedure, shortened: as §2

P. aeruginosa CIP107051 [8] = assay: MIC of compound alone, broth microdilution; assay type: cell-based; conditions: strain CIP107051; compound alone
Procedure, shortened: as §2

E. coli 190317 [9] = assay: MIC of compound alone, broth microdilution; assay type: cell-based; conditions: strain 190317; compound alone
Procedure, shortened: as §2

K. pneumoniae 6299 [10] = assay: MIC of compound alone, broth microdilution; assay type: cell-based; conditions: strain 6299; compound alone
Procedure, shortened: as §2

OXA-15 = OXA-15 (Pseudomonas aeruginosa, UniProt Q51574); conditions: read-out: IC50 β-lactamase OXA-15; class (D); nitrocefin 200 μM, 30-min pre-incubation, enzyme 0.4 nM
CTX-M-15 = CTX-M-15 (Escherichia coli, UniProt Q9EXV5); conditions: read-out: IC50 β-lactamase CTX-M-15; class (A); nitrocefin 200 μM, 30-min pre-incubation, enzyme 0.4 nM
AmpC (P99) = AmpC (P99) (Enterobacter cloacae, UniProt P05364); conditions: read-out: IC50 β-lactamase AmpC (P99); class (C); nitrocefin 200 μM, 30-min pre-incubation, enzyme 0.2 nM
TEM-1 = TEM-1 (Escherichia coli, UniProt P62593); conditions: read-out: IC50 β-lactamase TEM-1; class (A); nitrocefin 200 μM, 30-min pre-incubation, enzyme 0.1 nM
OXA-48 = OXA-48 (Klebsiella pneumoniae, UniProt Q6XEC0); conditions: read-out: IC50 β-lactamase OXA-48; class (D); nitrocefin 200 μM, 30-min pre-incubation, enzyme 0.3 nM
OXA-11 = OXA-11 (Pseudomonas aeruginosa, UniProt Q06778); conditions: read-out: IC50 β-lactamase OXA-11; class (D); nitrocefin 200 μM, 30-min pre-incubation, enzyme 1.2 nM
CMY-37 = CMY-37 (Citrobacter freundii, UniProt P05193); conditions: read-out: IC50 β-lactamase CMY-37; class (C); nitrocefin 200 μM, 30-min pre-incubation, enzyme 0.2 nM
SHV-1 = SHV-1 (Klebsiella pneumoniae, UniProt P0AD64); conditions: read-out: IC50 β-lactamase SHV-1; class (A); nitrocefin 200 μM, 30-min pre-incubation, enzyme 0.075 nM
KPC-2 = KPC-2 (Klebsiella pneumoniae, UniProt Q9F663); conditions: read-out: IC50 β-lactamase KPC-2; class (A); nitrocefin 200 μM, 30-min pre-incubation, enzyme 1 nM
OXA-1 = OXA-1 (Escherichia coli, UniProt P13661); conditions: read-out: IC50 β-lactamase OXA-1; class (D); nitrocefin 200 μM, 30-min pre-incubation, enzyme 0.2 nM

Compound | MIC combination of CAZ and compounds of the invention at 4 μg/mL (E. cloacae P99 [1]) | MIC combination of CAZ and compounds of the invention at 4 μg/mL (K. pneumoniae BAA-1898 [2]) | MIC combination of CAZ and compounds of the invention at 4 μg/mL (P. aeruginosa CIP107051 [3]) | MIC combination of CAZ and compounds of the invention at 4 μg/mL (E. coli 190317 [4]) | MIC combination of CAZ and compounds of the invention at 4 μg/mL (K. pneumoniae 6299 [5]) | MIC compounds of the invention alone (E. cloacae P99 [6]) | MIC compounds of the invention alone (K. pneumoniae BAA-1898 [7]) | MIC compounds of the invention alone (P. aeruginosa CIP107051 [8]) | MIC compounds of the invention alone (E. coli 190317 [9]) | MIC compounds of the invention alone (K. pneumoniae 6299 [10]) | IC50 (OXA-15) | IC50 (CTX-M-15) | IC50 (TEM-1) | IC50 (OXA-48) | IC50 (OXA-11) | IC50 (SHV-1) | IC50 (KPC-2) | IC50 (OXA-1) | also measured
O=C1N2CC(n3cc(-c4nccs4)nn3)=CC(C2)N1OS(=O)(=O)[O-].[Na+] (stereo not drawn) [Example 55, sodium [7-oxo-3-(4-thiazol-2-yltriazol-1-yl)-1,6-diazabicyclo[3.2.1]oct-3-en-6-yl]sulfate] | 8 mg/L | 1 mg/L | 8 mg/L | 0.25 mg/L | 4 mg/L | >32 mg/L | >32 mg/L | >32 mg/L | >32 mg/L | >32 mg/L | 3.4 nM | 0.41 nM | 0.14 nM | 0.27 nM | 25 nM | 0.61 nM | 0.82 nM | 26 nM | IC50 (AmpC (PAE)): 230 nM; IC50 (AmpC (P99)): 6.3 nM; IC50 (CMY-37): 35 nM
sodium (7-oxo-3-(3-(methoxycarbamoyl)-pyrazol-1-yl)-1,6-diazabicyclo[3.2.1]oct-3-en-6-yl) sulfate and sodium (7-oxo-3-(5-(methoxycarbamoyl)-pyrazol-1-yl)-1,6-diazabicyclo[3.2.1]oct-3-en-6-yl) sulfate [Example 27] | 2 mg/L | 16 mg/L | 16 mg/L | 0.25 mg/L | 0.5 mg/L | 16 mg/L | 32 mg/L | >32 mg/L | 8 mg/L | 32 mg/L | 110 nM | 1.2 nM | 1.1 nM | 6.1 nM | 69 nM | 4.8 nM | 10 nM | 130 nM | –
sodium [3-[3-[2-[tert-butyl(dimethyl)silyl]oxyethyl]pyrazol-1-yl]-7-oxo-1,6-diazabicyclo[3.2.1]oct-3-en-6-yl]sulfate [Example 69] | 1 mg/L | 64 mg/L | 8 mg/L | ≤0.25 mg/L | 1 mg/L | 32 mg/L | 32 mg/L | >32 mg/L | 4 mg/L | 32 mg/L | 230 nM | 0.95 nM | 0.61 nM | 14 nM | 120 nM | 2.3 nM | 32 nM | 310 nM | –
